Results reported in PubChem BioAssay AID179 (DTP/NCI, 2004).
The source made the active and inactive calls.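 How the source made its calls: active means compounds giving half or more protection of infected cells from virus-caused growth loss, again on retest; inactive means the rest.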 Where a SMILES comes first, the peptide text is derived from it. The star is where a group is joined. Cbz = O=C(OCc1ccccc1)*; Boc = CC(C)(C)OC(=O)*; tBu = CC(C)(C)*

System: CEM cells HIV-1 protection, formazan growth assay
Assay: NCI AIDS Antiviral Assay
Details: for IC50: measured here: growth of uninfected CEM cells
Method in brief: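 Human CEM cells, uninfected and HIV-1-infected, exposed to five drug concentrations; growth measured by soluble formazan assay and scored as percent protection from infection, with protecting compounds retested.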

Structure (SMILES)	EC50 [µM]	IC50 [µM]	outcome
C[n+]1ccc(-c2c3nc(c(-c4cc[n+](C)cc4)c4ccc([n-]4)c(-c4cc[n+](C)cc4)c4nc(c(-c5cc[n+](C)cc5)c5ccc2[n-]5)C=C4)C=C3)cc1.[I-].[Zn+2]	> 72.4	14.1	–
NP(N)(=O)NC(=O)c1ccc(F)cc1	> 200	> 200	–
Oc1ccc(Cn2c(-c3ccc(O)cc3)nc3ccccc32)cc1	> 794	> 794	–
O=S(=O)(O)c1ccc(N=Nc2ccc(S(=O)(=O)O)cc2)cc1	–	–	inactive
Nc1ccn(C2CSC(CO)O2)c(=O)n1 (stereo not drawn)	0.145	10	–
O=C1/C(=C\c2c(-c3ccccc3)nn(-c3ccccc3)c2O)C(c2ccccc2)=NN1c1ccccc1	> 100	> 100	–
Cc1cnc2cc(Cl)ccc2c1NCCN(CC(C)C)CC(C)C	> 1	> 1	–
COc1ccc(-c2c(C#N)c(S)n(NS(=O)(=O)c3ccc(C)cc3)c(=O)c2C#N)cc1	> 200	9.33	–
COC1=NC2=CC(=O)c3c(c(OC(C)=O)c(C)c4c3C(=O)C(C)(O/C=C/C(OC)C(C)C(OC(C)=O)C(C)C(O)C(C)C(OC(C)=O)C(C)/C=C/C=C\1C)O4)C2=O (stereo not drawn)	> 200	16.6	–
CCOC(=O)C(=O)Nc1ccccc1C(C)C	> 151	> 151	–
CCCCCCCCCCCc1c(O)c(O)cc2nc3cc(Cl)c(Cl)cc3nc12	> 16.6	5.37	–
COC(=O)CNC(=O)C(NC(=O)C1CCCN1C(=O)OCc1ccccc1)C(C)C (stereo not drawn) (Cbz-Pro-Val-Gly-OMe; configuration not given here)	> 224	37.2	–
Oc1ccc(Cc2nccc3cc(O)c(O)cc23)cc1O	> 200	29.5	–
C=C1C(=O)O[C@H]2C/C(C=O)=C\[C@H]3O[C@H]3/C(COC(=O)C(C)C)=C/CC12 (stereo partly drawn)	> 200	1.62	–
COc1ccc2oc(=O)c(CC=C(C)C)c(O)c2c1C	> 200	> 100	–
C/C(=N\N=C(/C)C1CC(CC(=O)O)C1(C)C)C1CC(CC(=O)O)C1(C)C (stereo not drawn)	> 186	> 186	–
O=c1c2ccccc2oc2c(Cl)cc(Cl)cc12	> 490	263	–
C/C(=N\NC(=S)NC1CCCC1)c1ccccn1	> 2	0.0151	–
CCSC(=O)n1ncc2cc(Cl)ccc21	> 200	30.2	–

Structure (SMILES)	EC50 [µM]	IC50 [µM]	outcome
O=Cc1ccc2c(c1-c1c(C=O)ccc3c1OCO3)OCO2	> 170	79.4	–
CCOc1ccccc1N=NC1C(=O)N(C(=O)CC(=O)Nc2ccccc2OC)N=C1C (stereo not drawn)	> 200	> 200	–
[Co+2].[O-]c1ccccc1C=NCc1ccccc1.[O-]c1ccccc1C=NCc1ccccc1	> 19.5	> 19.5	–
CCOC(=O)CN1C(=O)NC(C)(c2ccccc2)C1=O (stereo not drawn)	> 200	> 200	–
NC1=NC2=C(CCCC2)C(c2cccs2)S1 (stereo not drawn)	> 145	> 145	–
N#CCCN(CCC#N)CCN(CCN(CCC#N)CCC#N)CCN(CCC#N)CCC#N	> 200	> 200	–
[O-]/[N+](=C\c1ccccc1)[C@H](COCc1ccccc1)c1ccccc1	> 77.6	> 77.6	–
CC(CCc1nc2ccccc2[nH]1)C1CCC2C3C(C[C@H](O)[C@]12C)[C@@]1(C)CC[C@@H](O)C[C@H]1C[C@H]3O (stereo partly drawn)	> 50.1	10	–
Cc1cc(C)nc(NC(=O)Nc2cc(Cl)ccc2C)c1	> 200	> 200	–
CC1=Nc2ccccc2SC2(C1)C(C1COC(C)(C)O1)OC1OC(C)(C)OC12 (stereo not drawn)	> 74.1	63.1	–
O=C(O)c1ccccc1-c1c2ccc(=O)c(O)c-2oc2c(O)c(O)ccc12	> 25.1	8.71	–
Cc1cc(=O)[nH]c(CNC(=O)c2ccc3ccccc3c2)n1	> 123	> 123	–
NS(=O)(=O)c1ccc(NC(=O)c2cccnc2Nc2cccc(Cl)c2)cc1	–	–	inactive
COC1/C=C/OC2(C)Oc3c(C)c(O)c4c(O)c(c(/C=N/N=C(\N)N[N+](=O)[O-])c(O)c4c3C2=O)NC(=O)C(C)=C/C=C/C(C)C(O)C(C)C(O)C(C)C(OC(C)=O)C1C (stereo not drawn)	–	–	inactive
CN1c2ccccc2C(=O)NC12CCN(Cc1ccccc1)CC2	> 200	120	–
O=S(=O)(c1ccc(Cl)c(Cl)c1)c1ccc(Cl)c(Cl)c1	> 200	> 200	–
O=c1nc(NC2CCCCO2)ccn1CCO (stereo not drawn)	> 1050	> 1050	–
CC(OC(C)(C)C)C(NC(=O)C(CCCCNC(=O)OC(C)(C)C)NC(=O)C(Cc1c[nH]c2ccccc12)NC(=O)C(Cc1ccccc1)NC(=O)OCc1ccccc1)C(=O)NC(Cc1ccccc1)C(=O)O (stereo not drawn) (Cbz-FWK(Boc)T(tBu)F-OH; configuration not given here)	> 200	35.5	–
O=C1C(=O)N(CNC(c2ccccc2)c2ccccc2)c2ccccc21	> 126	102	–
